Results reported in patent US6825172B2, “3-descladinosyl-6-O-carbamoyl and 6-O-carbonoyl macrolide antibacterial agents” (Janssen Pharmaceutica, NV, priority 2002, dated 2004).
In brackets after ≈: the same amount, converted by molar mass. Read-outs that look alike come from different tables or passages of the source.

Experiments:
Assay in all cases: MIC, microdilution broth method (NCCLS)
Type in all cases: cell-based
H. influenzae ATCC49247 = conditions: Haemophilus influenzae, read-out: MIC Values, E: H. influenzae ATCC49247
Description: (§1) Minimal inhibitory concentration (MIC) has been an indicator of in vitro antibacterial activity widely used in the art. The in vitro antimicrobial activity of the compounds was determined by the microdilution broth method following the test method from the National Committee for Clinical Laboratory Standards (NCCLS). This method is described in the NCCLS Document M7-A4, Vol.17, No.2, “Methods for Dilution Antimicrobial Susceptibility Test for Bacteria that Grow Aerobically—Fourth Edition”, which is incorporated herein by reference.
(§2) In this method two-fold serial dilutions of drug in cation adjusted Mueller-Hinton broth are added to wells in microdilution trays. The test organisms are prepared by adjusting the turbidity of actively growing broth cultures so that the final concentration of test organism after it is added to the wells is approximately 5×10^4 CFU/well.
(§3) Following inoculation of the microdilution trays, the trays are incubated at 35 °C for 16-20 hours and then read. […] The amount of growth in the wells containing the test compound is compared with the amount of growth in the growth-control wells (no test compound) used in each tray. As set forth in Table 1, compounds of the present invention were tested against a variety of Gram positive and Gram negative pathogenic bacteria resulting in a range of activities depending on the organism tested.

S. aureus ATCC29213 = conditions: Staphylococcus aureus, read-out: MIC Values, B: S. aureus ATCC29213
Description: as §1, §2, §3

S. pneumoniae ATCC49619 = conditions: Streptococcus pneumoniae, read-out: MIC Values, D: S. pneumoniae ATCC49619
Description: as §1, §2, §3

E. faecalis ATCC29212 = conditions: Enterococcus faecalis, read-out: MIC Values, C: E. faecalis ATCC29212
Description: as §1, §2, §3

E. coli OC2605 = conditions: Escherichia coli
Description: as §1, §2, §3

[1] = Table 2, 3,6-Dicarbamoyl Macrolide Derivatives
[2] = Table 2, 3,6-Dicarbamoyl Macrolide Derivatives, read-out: MIC Values, A: E. coil OC2605
[3] = Table 1, 6-Carbamoyl-3-Acyl Macrolide Derivatives
[4] = Table 1, 6-Carbamoyl-3-Acyl Macrolide Derivatives, read-out: MIC Values, A: E. coli OC2605

| SMILES | MIC (H. influenzae ATCC49247; [1]) [µg/mL] | MIC (S. aureus ATCC29213; [1]) [µg/mL] | MIC (S. pneumoniae ATCC49619; [1]) [µg/mL] | MIC (E. faecalis ATCC29212; [1]) [µg/mL] | MIC (E. coli OC2605; [2]) [µg/mL] | MIC (H. influenzae ATCC49247; [3]) [µg/mL] | MIC (S. aureus ATCC29213; [3]) [µg/mL] | MIC (S. pneumoniae ATCC49619; [3]) [µg/mL] | MIC (E. faecalis ATCC29212; [3]) [µg/mL] | MIC (E. coli OC2605; [4]) [µg/mL] |
| --- | --- | --- | --- | --- | --- | --- | --- | --- | --- | --- |
| CC[C@H]1OC(=O)[C@H](C)[C@@H](OC(=O)Nc2ccc(F)cc2)[C@H](C)[C@@H](O[C@@H]2O[C@H](C)C[C@H](N(C)C)[C@H]2O)[C@](C)(OC(=O)NC/C=C/c2ccc(-c3ncccn3)cc2)C[C@@H](C)C(=O)[C@H](C)[C@H]2NC(=O)O[C@@]21C [Compound 52] | 4 (≈ 4.1 µM) | 1 (≈ 1.03 µM) | 0.12 (≈ 0.123 µM) | 1 (≈ 1.03 µM) | > 16 | – | – | – | – | – |
| CC[C@H]1OC(=O)[C@H](C)[C@@H](OC(=O)N2Cc3cccnc3C2)[C@H](C)[C@@H](O[C@@H]2O[C@H](C)C[C@H](N(C)C)[C@H]2O)[C@](C)(OC(=O)NC/C=C/c2ccc(-c3ncccn3)cc2)C[C@@H](C)C(=O)[C@H](C)[C@H]2NC(=O)O[C@@]21C [Compound 67] | 8 (≈ 8.13 µM) | 0.5 (≈ 0.508 µM) | 0.06 (≈ 0.061 µM) | 0.5 (≈ 0.508 µM) | > 16 | – | – | – | – | – |
| CC[C@H]1OC(=O)[C@H](C)[C@@H](OC(=O)Cc2cccnc2)[C@H](C)[C@@H](O[C@@H]2O[C@H](C)C[C@H](N(C)C)[C@H]2O)[C@](C)(OC(=O)NC/C=C/c2cnc(C(F)(F)F)nc2)C[C@@H](C)C(=O)[C@H](C)[C@H]2NC(=O)O[C@@]21C [Compound 38] | – | – | – | – | – | 4 (≈ 4.21 µM) | 2 (≈ 2.11 µM) | 0.12 (≈ 0.126 µM) | 0.5 (≈ 0.527 µM) | > 16 |
| CC[C@H](C)C(=O)O[C@H]1[C@H](C)[C@@H](O[C@@H]2O[C@H](C)C[C@H](N(C)C)[C@H]2O)[C@](C)(OC(=O)NC/C=C/c2ccc(-c3ncccn3)cc2)C[C@@H](C)C(=O)[C@H](C)[C@H]2NC(=O)O[C@]2(C)[C@@H](CC)OC(=O)[C@@H]1C [Compound 15] | – | – | – | – | – | 4 (≈ 4.34 µM) | 0.5 (≈ 0.542 µM) | 0.06 (≈ 0.0651 µM) | 0.5 (≈ 0.542 µM) | > 16 |
| CC[C@H]1OC(=O)[C@H](C)[C@@H](OC(=O)N2CCCC2)[C@H](C)[C@@H](O[C@@H]2O[C@H](C)C[C@H](N(C)C)[C@H]2O)[C@](C)(OC(=O)NC/C=C/c2ccc(-c3ncccn3)cc2)C[C@@H](C)C(=O)[C@H](C)[C@H]2NC(=O)O[C@@]21C [Compound 62] | 4 (≈ 4.28 µM) | 0.5 (≈ 0.535 µM) | 0.06 (≈ 0.0642 µM) | 0.5 (≈ 0.535 µM) | > 16 | – | – | – | – | – |
| CC[C@H]1OC(=O)[C@H](C)[C@@H](OC(=O)N(CC)CC)[C@H](C)[C@@H](O[C@@H]2O[C@H](C)C[C@H](N(C)C)[C@H]2O)[C@](C)(OC(=O)NC/C=C/c2ccc(-c3ncccn3)cc2)C[C@@H](C)C(=O)[C@H](C)[C@H]2NC(=O)O[C@@]21C [Compound 56] | 4 (≈ 4.27 µM) | 0.5 (≈ 0.534 µM) | 0.06 (≈ 0.064 µM) | 0.5 (≈ 0.534 µM) | 16 (≈ 17.1 µM) | – | – | – | – | – |
| CC[C@H]1OC(=O)[C@H](C)[C@@H](OC(=O)Cc2cccnc2)[C@H](C)[C@@H](O[C@@H]2O[C@H](C)C[C@H](N(C)C)[C@H]2O)[C@](C)(OC(=O)NC/C=C/c2ccc(C(F)(F)F)nc2)C[C@@H](C)C(=O)[C@H](C)[C@H]2NC(=O)O[C@@]21C [Compound 36] | – | – | – | – | – | 4 (≈ 4.22 µM) | 1 (≈ 1.05 µM) | 0.06 (≈ 0.0633 µM) | 0.25 (≈ 0.264 µM) | 16 (≈ 16.9 µM) |
| CC[C@H]1OC(=O)[C@H](C)[C@@H](OC(=O)Cc2cccnc2)[C@H](C)[C@@H](O[C@@H]2O[C@H](C)C[C@H](N(C)C)[C@H]2OC(C)=O)[C@](C)(OC(=O)NCc2cnc3ccccc3c2)C[C@@H](C)C(=O)[C@H](C)[C@H]2NC(=O)O[C@@]21C [Compound 22] | – | – | – | – | – | 2 (≈ 2.11 µM) | 0.5 (≈ 0.528 µM) | 0.03 (≈ 0.0317 µM) | 0.25 (≈ 0.264 µM) | 16 (≈ 16.9 µM) |
| CC[C@H]1OC(=O)[C@H](C)[C@@H](OC(=O)Cc2cccnc2)[C@H](C)[C@@H](O[C@@H]2O[C@H](C)C[C@H](N(C)C)[C@H]2O)[C@](C)(OC(=O)NC/C=C/c2cnc(C(C)C)nc2)C[C@@H](C)C(=O)[C@H](C)[C@H]2NC(=O)O[C@@]21C [Compound 41] | – | – | – | – | – | 4 (≈ 4.33 µM) | 1 (≈ 1.08 µM) | 0.12 (≈ 0.13 µM) | 0.5 (≈ 0.542 µM) | > 16 |
| CC[C@H]1OC(=O)[C@H](C)[C@@H](OC(=O)Nc2ccc(OC)nc2)[C@H](C)[C@@H](O[C@@H]2O[C@H](C)C[C@H](N(C)C)[C@H]2O)[C@](C)(OC(=O)NC/C=C/c2ccc(-c3ncccn3)cc2)C[C@@H](C)C(=O)[C@H](C)[C@H]2NC(=O)O[C@@]21C [Compound 50] | 4 (≈ 4.05 µM) | 1 (≈ 1.01 µM) | 0.12 (≈ 0.121 µM) | 0.5 (≈ 0.506 µM) | > 16 | – | – | – | – | – |
| CC[C@H]1OC(=O)[C@H](C)[C@@H](OC(=O)/C(=N/OC)c2cccnc2)[C@H](C)[C@@H](O[C@@H]2O[C@H](C)C[C@H](N(C)C)[C@H]2O)[C@](C)(OC(=O)NC/C=C/c2ccc(-c3ncccn3)cc2)C[C@@H](C)C(=O)[C@H](C)[C@H]2NC(=O)O[C@@]21C [Compound 43] | – | – | – | – | – | 8 (≈ 8 µM) | 1 (≈ 1 µM) | 0.12 (≈ 0.12 µM) | 1 (≈ 1 µM) | 16 (≈ 16 µM) |
| CC[C@H]1OC(=O)[C@H](C)[C@@H](OC(=O)Nc2ccc3ccccc3c2)[C@H](C)[C@@H](O[C@@H]2O[C@H](C)C[C@H](N(C)C)[C@H]2O)[C@](C)(OC(=O)NC/C=C/c2ccc(-c3ncccn3)cc2)C[C@@H](C)C(=O)[C@H](C)[C@H]2NC(=O)O[C@@]21C [Compound 53] | > 16 | 2 (≈ 1.99 µM) | 0.25 (≈ 0.248 µM) | 1 (≈ 0.993 µM) | > 16 | – | – | – | – | – |
| CC[C@H]1OC(=O)[C@H](C)[C@@H](OC(=O)CCc2cccnc2)[C@H](C)[C@@H](O[C@@H]2O[C@H](C)C[C@H](N(C)C)[C@H]2O)[C@](C)(OC(=O)NC/C=C/c2ccc(-c3ncccn3)cc2)C[C@@H](C)C(=O)[C@H](C)[C@H]2NC(=O)O[C@@]21C [Compound 3] | – | – | – | – | – | 2 (≈ 2.06 µM) | 0.5 (≈ 0.515 µM) | 0.06 (≈ 0.0618 µM) | 0.25 (≈ 0.257 µM) | > 16 |
| CC[C@H]1OC(=O)[C@H](C)[C@@H](OC(=O)Cc2cccnc2)[C@H](C)[C@@H](O[C@@H]2O[C@H](C)C[C@H](N(C)C)[C@H]2O)[C@](C)(OC(=O)NC/C=C/c2cnc3ccccc3c2)C[C@@H](C)C(=O)[C@H](C)[C@H]2NC(=O)O[C@@]21C [Compound 30] | – | – | – | – | – | 4 (≈ 4.3 µM) | 1 (≈ 1.08 µM) | 0.03 (≈ 0.0323 µM) | 0.5 (≈ 0.538 µM) | 16 (≈ 17.2 µM) |
| CC[C@H]1OC(=O)[C@H](C)[C@@H](OC(=O)Cc2ccccn2)[C@H](C)[C@@H](O[C@@H]2O[C@H](C)C[C@H](N(C)C)[C@H]2O)[C@](C)(OC(=O)NC/C=C/c2ccc(C#N)nc2)C[C@@H](C)C(=O)[C@H](C)[C@H]2NC(=O)O[C@@]21C [Compound 29] | – | – | – | – | – | 2 (≈ 2.21 µM) | 0.5 (≈ 0.552 µM) | 0.03 (≈ 0.0331 µM) | 0.25 (≈ 0.276 µM) | 16 (≈ 17.7 µM) |
